Data on 15 compounds can be found in patent US12378243B2, “Quinoline compounds as inhibitors of KRAS” (Incyte Corporation, priority 2021, dated 2025).

Molecules are shown by their SMILES.

The subject of one series is Caco-2 cells. As to the kind of experiment: Caco2 assay (permeability, A-B). It counts as in vitro ADME. Conditions: Table 4; Papp absorptive direction (A-B), test compound 50 μM, 120 minutes at 37° C. The procedure, abridged: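 Caco-2 monolayers grown 22-25 days on Transwells, used only at TEER ≥300 Ω·cm^2. Compound at 50 μM in HBSS added apically, receiver HBSS with 4% BSA; 120 min at 37 °C. LCMS quantification; Papp from receiver flux slope, membrane area and initial donor amount.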
(Caco-2 cells form a polarised layer with tight junctions and transporters.)

A further series concerns the target KRAS G12D (Homo sapiens, UniProt P01116, G12D). As to the kind of experiment: GDP-GTP exchange assay, KRAS G12D. Conditions: bodipy-loaded KRAS G12D 2.5 nM, GppNHp 500 uM, SOS1 150 nM; 4 hours pre-incubation, 2 hours incubation; read-out: G12D_exchange. Type of series: biochemical. The method in brief:
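Nucleotide exchange started with 1 mM GppNHp and 300 nM SOS1, then 2 h at ambient temperature. IC50 from four-parameter logistic fit with variable Hill slope.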

Another series concerns the target KRAS G12V mutant (Homo sapiens, UniProt P01116, G12V). As to the kind of experiment: GDP-GTP exchange assay, KRAS G12V. Conditions: bodipy loaded KRAS G12V 2.5 nM; 3 hours incubation after adding GppNHp-SOS1 mixture; read-out: G12V_exchange. Type of series: biochemical.

Chain of KRAS G12V mutant (P01116 1-188 isoform P01116-2 G12V): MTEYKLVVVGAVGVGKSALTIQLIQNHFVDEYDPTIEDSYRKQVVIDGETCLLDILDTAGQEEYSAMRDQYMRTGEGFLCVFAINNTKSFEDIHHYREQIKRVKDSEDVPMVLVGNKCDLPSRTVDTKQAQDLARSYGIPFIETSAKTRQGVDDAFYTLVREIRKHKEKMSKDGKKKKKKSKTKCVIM
Chain of KRAS G12D (P01116 1-188 isoform P01116-2 G12D): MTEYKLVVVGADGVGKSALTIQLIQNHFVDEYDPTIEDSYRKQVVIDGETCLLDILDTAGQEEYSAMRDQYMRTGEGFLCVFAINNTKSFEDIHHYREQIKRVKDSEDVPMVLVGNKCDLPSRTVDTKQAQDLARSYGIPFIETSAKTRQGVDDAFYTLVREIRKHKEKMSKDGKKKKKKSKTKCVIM

Turning to `Cc1nc2c(F)c(-c3cccc(Cl)c3Cl)c(CCC#N)cc2c2c1cc([C@@H](C)NC(=O)c1cscn1)n2[C@H]1[C@H]2CN[C@@H]1C2` [Example 59, N-((1R)-1-(1-((1R,4R,5S)-2-Azabicyclo[2.1.1]hexan-5-yl)-8-(2-cyanoethyl)-7-(2,3-dichlorophenyl)-6-fluoro-4-methyl-1H-pyrrolo[3,2-c]quinolin-2-yl)ethyl)thiazole-4-carboxamide], the Caco-2 entry with Caco-2 cells is given as “+++ (a Caco-2 value of >1)”. The IC50 on KRAS G12D and at KRAS G12V mutant was < 0.1 µM in each case.
`Cc1nc2c(F)c(-c3cccc(Cl)c3Cl)c(CCC#N)cc2c2c1cc([C@@H](C)N(C)C(=O)C1CC1)n2[C@H]1[C@H]2CN[C@@H]1C2` [Example 60, N-((1R)-1-(1-((1R,4R,5S)-2-Azabicyclo[2.1.1]hexan-5-yl)-8-(2-cyanoethyl)-7-(2,3-dichlorophenyl)-6-fluoro-4-methyl-1H-pyrrolo[3,2-c]quinolin-2-yl)ethyl)-N-methylcyclopropanecarboxamide]: the Caco-2 entry in the series on Caco-2 cells is “+++ (a Caco-2 value of >1)”. Moreover, the IC50 on KRAS G12D was < 0.1 µM; on KRAS G12V mutant, 0.1 to 1 µM.
The like results for `CC(O)c1nc2c(F)c(-c3cccc(Cl)c3Cl)c(CCC#N)cc2c2c1cc([C@@H](C)NC(=O)C1(C)CC1)n2[C@H]1[C@H]2CN[C@@H]1C2` (stereo partly drawn) [Example 61, N-((1R)-1-(1-((1R,4R,5S)-2-Azabicyclo[2.1.1]hexan-5-yl)-8-(2-cyanoethyl)-7-(2,3-dichlorophenyl)-6-fluoro-4-(1-hydroxyethyl)-1H-pyrrolo[3,2-c]quinolin-2-yl)ethyl)-1-methylcyclopropane-1-carboxamide] were, in that order, “++ (a Caco-2 value of >0.5 but ≤1)”, < 0.1 µM and < 0.1 µM.
As for `CC(O)c1nc2c(F)c(-c3cccc(Cl)c3Cl)c(CCC#N)cc2c2c1cc([C@H]1C[C@H]3C[C@H]3N1C(=O)C1(C)CC1)n2[C@H]1[C@H]2CN[C@@H]1C2` (stereo partly drawn) [Example 62, 3-(1-((1R,4R,5S)-2-Azabicyclo[2.1.1]hexan-5-yl)-7-(2,3-dichlorophenyl)-6-fluoro-4-(1-hydroxyethyl)-2-((1R,3R,5R)-2-(1-methylcyclopropane-1-carbonyl)-2-azabicyclo[3.1.0]hexan-3-yl)-1H-pyrrolo[3,2-c]quinolin-8-yl)propanenitrile], the Caco-2 entry in the series with Caco-2 cells was “+++ (a Caco-2 value of >1)”. Besides, the IC50 at KRAS G12D and on KRAS G12V mutant was < 0.1 µM throughout.
For the compound `CC(O)c1nc2c(F)c(-c3cccc(Cl)c3Cl)c(CCC#N)cc2c2c1cc([C@H]1C[C@H]3C[C@H]3N1C(=O)C1(F)CC1)n2[C@H]1[C@H]2CN[C@@H]1C2` (stereo partly drawn) [Example 63, 3-(1-((1R,4R,5S)-2-Azabicyclo[2.1.1]hexan-5-yl)-7-(2,3-dichlorophenyl)-6-fluoro-2-((1R,3R,5R)-2-(1-fluorocyclopropane-1-carbonyl)-2-azabicyclo[3.1.0]hexan-3-yl)-4-(1-hydroxyethyl)-1H-pyrrolo[3,2-c]quinolin-8-yl)propanenitrile], the Caco-2 entry in the series on Caco-2 cells is recorded as “+++ (a Caco-2 value of >1)”. Further, the IC50 at KRAS G12D and at KRAS G12V mutant was < 0.1 µM throughout.
With `Cc1nc2c(F)c(-c3cccc(Cl)c3Cl)c(CCC#N)cc2c2c1cc([C@H]1C[C@H]3C[C@H]3N1C(=O)C1(F)CC1)n2[C@H]1[C@H]2CN[C@@H]1C2` [Example 64, 3-(1-((1R,4R,5S)-2-Azabicyclo[2.1.1]hexan-5-yl)-7-(2,3-dichlorophenyl)-6-fluoro-2-((1R,3R,5R)-2-(1-fluorocyclopropane-1-carbonyl)-2-azabicyclo[3.1.0]hexan-3-yl)-4-methyl-1H-pyrrolo[3,2-c]quinolin-8-yl)propanenitrile], in the series with Caco-2 cells, the Caco-2 result is listed as “+++ (a Caco-2 value of >1)”. Moreover, the results for the IC50 at KRAS G12D and at KRAS G12V mutant were < 0.1 µM and 0.1 to 1 µM, respectively.
In the same order, the values of `CC(O)c1nc2c(F)c(-c3cccc(Cl)c3Cl)c(CCC#N)cc2c2c1cc([C@@H](C)NC(=O)C1(F)CC1)n2[C@H]1[C@H]2CN[C@@H]1C2` (stereo partly drawn) [Example 65, N-((1R)-1-(1-((1R,4R,5S)-2-Azabicyclo[2.1.1]hexan-5-yl)-8-(2-cyanoethyl)-7-(2,3-dichlorophenyl)-6-fluoro-4-(1-hydroxyethyl)-1H-pyrrolo[3,2-c]quinolin-2-yl)ethyl)-1-fluorocyclopropane-1-carboxamide] are “+++ (a Caco-2 value of >1)”, < 0.1 µM and < 0.1 µM.
For `CC(O)c1nc2c(F)c(-c3cccc(Cl)c3Cl)c(CCC#N)cc2c2c1cc([C@@H](C)NC(=O)C1(F)CCC1)n2[C@H]1[C@H]2CN[C@@H]1C2` (stereo partly drawn) [Example 66, N-((1R)-1-(1-((1R,4R,5S)-2-azabicyclo[2.1.1]hexan-5-yl)-8-(2-cyanoethyl)-7-(2,3-dichlorophenyl)-6-fluoro-4-(1-hydroxyethyl)-1H-pyrrolo[3,2-c]quinolin-2-yl)ethyl)-1-fluorocyclobutane-1-carboxamide], the Caco-2 entry in the series with Caco-2 cells is on record as “+++ (a Caco-2 value of >1)”. Moreover, the IC50 on KRAS G12D and at KRAS G12V mutant was < 0.1 µM throughout.
For the compound `Cc1cc(C(C)c2cc3c(C)nc4c(F)c(-c5cccc(Cl)c5C)c(CCC#N)cc4c3n2[C@H]2[C@H]3CN[C@@H]2C3)c(=O)n(C)n1` (stereo partly drawn) [Example 67, 3-(1-((1R,4R,5S)-2-azabicyclo[2.1.1]hexan-5-yl)-7-(3-chloro-2-methylphenyl)-2-(1-(2,6-dimethyl-3-oxo-2,3-dihydropyridazin-4-yl)ethyl)-6-fluoro-4-methyl-1H-pyrrolo[3,2-c]quinolin-8-yl)propanenitrile], the Caco-2 result with Caco-2 cells was “+++ (a Caco-2 value of >1)”. In addition, the IC50 on KRAS G12D and at KRAS G12V mutant was < 0.1 µM in each case.
As for `Cc1nc2c(F)c(-c3cccc(Cl)c3Cl)c(CCC#N)cc2c2c1cc([C@@H](C)NC(=O)c1ccncn1)n2[C@H]1[C@H]2CN[C@@H]1C2` [Example 68, N-((1R)-1-(1-((1R,4R,5S)-2-azabicyclo[2.1.1]hexan-5-yl)-8-(2-cyanoethyl)-7-(2,3-dichlorophenyl)-6-fluoro-4-methyl-1H-pyrrolo[3,2-c]quinolin-2-yl)ethyl)pyrimidine-4-carboxamide], the Caco-2 result with Caco-2 cells is “+++ (a Caco-2 value of >1)”. Also, the IC50 at KRAS G12D and on KRAS G12V mutant was < 0.1 µM in each case.
Regarding `Cc1nc2c(F)c(-c3cccc(Cl)c3Cl)c(CCC#N)cc2c2c1cc([C@@H](C)NC(=O)c1cccnn1)n2[C@H]1[C@H]2CN[C@@H]1C2` [Example 69, N-((1R)-1-(1-((1R,4R,5S)-2-azabicyclo[2.1.1]hexan-5-yl)-8-(2-cyanoethyl)-7-(2,3-dichlorophenyl)-6-fluoro-4-methyl-1H-pyrrolo[3,2-c]quinolin-2-yl)ethyl)pyridazine-3-carboxamide], the Caco-2 result with Caco-2 cells was “+++ (a Caco-2 value of >1)”. The IC50 on KRAS G12D and at KRAS G12V mutant was < 0.1 µM each time.
Turning to `Cc1nc2c(F)c(-c3cccc(Cl)c3Cl)c(CCC#N)cc2c2c1cc([C@@H](C)NC(=O)N1CC(F)(F)C1)n2[C@H]1[C@H]2CN[C@@H]1C2` [Example 70, N-((1R)-1-(1-((1R,4R,5S)-2-azabicyclo[2.1.1]hexan-5-yl)-8-(2-cyanoethyl)-7-(2,3-dichlorophenyl)-6-fluoro-4-methyl-1H-pyrrolo[3,2-c]quinolin-2-yl)ethyl)-3,3-difluoroazetidine-1-carboxamide], in the series with Caco-2 cells, the Caco-2 result was “+++ (a Caco-2 value of >1)”. Moreover, the IC50 at KRAS G12D and on KRAS G12V mutant was < 0.1 µM in each case.
Consider `Cc1nc2c(F)c(-c3cccc(Cl)c3Cl)c(CCC#N)cc2c2c1cc([C@@H](C)Nc1cnn(C)c1)n2[C@H]1[C@H]2CN[C@@H]1C2` [Example 71, 3-(1-((1R,4R,5S)-2-azabicyclo[2.1.1]hexan-5-yl)-7-(2,3-dichlorophenyl)-6-fluoro-4-methyl-2-((R)-1-((1-methyl-1H-pyrazol-4-yl)amino)ethyl)-1H-pyrrolo[3,2-c]quinolin-8-yl)propanenitrile], for which the Caco-2 result in the series with Caco-2 cells was “+++ (a Caco-2 value of >1)”. In addition, the IC50 on KRAS G12D and at KRAS G12V mutant was < 0.1 µM in each case.
For `CN(C)C(=O)c1ccc(-c2nc3c(F)c(-c4cccc(Cl)c4Cl)c(CCC#N)cc3c3c2cc([C@H]2CCCN2C(=O)C2(F)CC2)n3[C@H]2[C@H]3CN[C@@H]2C3)cn1` [Example 72, 5-(1-((1R,4R,5S)-2-Azabicyclo[2.1.1]hexan-5-yl)-8-(2-cyanoethyl)-7-(2,3-dichlorophenyl)-6-fluoro-2-((R)-1-(1-fluorocyclopropane-1-carbonyl)pyrrolidin-2-yl)-1H-pyrrolo[3,2-c]quinolin-4-yl)-N,N-dimethylpicolinamide], the Caco-2 entry in the series on Caco-2 cells is recorded as “+++ (a Caco-2 value of >1)”. Further, the IC50 on KRAS G12D and on KRAS G12V mutant was < 0.1 µM in each case.
As to `COC(=O)N1CCC[C@@H]1c1cc2c(-c3ccc(CN(C)C)c(F)c3F)nc3c(F)c(-c4cccc(Cl)c4Cl)c(CCC#N)cc3c2n1[C@H]1[C@H]2CN[C@@H]1C2` [Example 73, methyl (2R)-2-(1-((1R,4R,5S)-2-Azabicyclo[2.1.1]hexan-5-yl)-8-(2-cyanoethyl)-7-(2,3-dichlorophenyl)-4-(4-((dimethylamino)methyl)-2,3-difluorophenyl)-6-fluoro-1H-pyrrolo[3,2-c]quinolin-2-yl)pyrrolidine-1-carboxylate], the Caco-2 entry in the series on Caco-2 cells was “+++ (a Caco-2 value of >1)”. Further, the IC50 on KRAS G12D and on KRAS G12V mutant was < 0.1 µM throughout.
